Target: T1, human GPR119 (Homo sapiens, UniProt Q8TDV5)
T1 construct: expressed in transfected cells; host or cells: HEK293
T1 sequence (Q8TDV5 1-335): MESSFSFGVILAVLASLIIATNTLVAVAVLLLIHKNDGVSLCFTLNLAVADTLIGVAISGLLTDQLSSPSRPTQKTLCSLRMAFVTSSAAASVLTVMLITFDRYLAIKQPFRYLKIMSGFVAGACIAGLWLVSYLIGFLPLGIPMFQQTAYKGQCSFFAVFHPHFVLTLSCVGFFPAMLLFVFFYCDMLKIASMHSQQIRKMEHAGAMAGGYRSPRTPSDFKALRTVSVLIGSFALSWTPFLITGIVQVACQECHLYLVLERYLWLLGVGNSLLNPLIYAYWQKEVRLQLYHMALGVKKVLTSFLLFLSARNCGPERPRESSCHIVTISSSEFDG
Test: Measurement of GPR119 signaling using LANCE 384-well cAMP kit (LCMP assay)
Format: cell-based
Conditions: HEK293 cells stably transfected with human GPR119
Protocol: Measurement of GPR119 Signaling Using LANCE 384-Well cAMP Kit (LCMP Assay)
Human embryonic kidney (HEK) 293 cell lines stably transfected with human GPR119 were maintained in DMEM media containing FBS, penicillin-streptomycin, HEPES, and hygromycin. For the cAMP assay, the transfected cells were harvested using a non-enzymatic cell dissociation solution (GIBCO 2672), pelleted and resuspended in stimulation buffer (DMEM, 25 mM Hepes, 0.1% BSA, pH 7.4 in the presence of 100 μM phosphodiesterase inhibitors). The adenylate cyclase assay was constructed following the LANCE™ cAMP Kit (Perkin Elmer, AD0264) instructions. Briefly, cells with Alexa Fluor® 647-anti cAMP antibody were incubated with 10 point series diluted test article in stimulation buffer with a final concentration of 2.5% DMSO for 45 minutes. The reaction was stopped by incubating with the supplied detection buffer containing the europium chelate of the Eu-SA/Biotin-cAMP tracer for 3 hours. The assay was performed in duplicate in a 384 well plate for duplicate plates. Fluorescence at 665 nm was measured using a PHERAstar instrument. Basal activity was determined using a DMSO control and maximum response was defined as cAMP stimulation produced by an internal agonist control. Standard cAMP concentrations were assayed concurrently for conversion of fluorescence signal to cAMP level. The data was analyzed using 4-parameter curve fit in Microsoft Excel.

| SMILES | EC50 |
| --- | --- |
| CS(=O)(=O)c1ccc(OCC[C@H]2C[C@@H]2C2CCN(c3ncc(Cl)cn3)CC2)c(F)c1 [Example 30, 5-chloro-2-(4-((1R,2R)-2-(2-(2-fluoro-4-(methylsulfonyl)phenoxy)ethyl)cyclopropyl)piperidin-1-yl)pyrimidine] | 23 nM |
| CCc1cnc(N2CCC([C@@H]3C[C@H]3CCOc3ccc(S(C)(=O)=O)c(F)c3)CC2)nc1 [Example 31, 5-ethyl-2-(4-((1S,2S)-2-(2-(3-fluoro-4-(methylsulfonyl)phenoxy)ethyl)cyclopropyl)piperidin-1-yl)pyrimidine] | 16 nM |
| CCc1cnc(N2CCC([C@@H]3C[C@H]3CCOc3ccc(S(=O)(=O)CC)cc3F)CC2)nc1 [Example 32, 5-ethyl-2-(4-((1S,2S)-2-(2-(4-(ethylsulfonyl)-2-fluorophenoxy)ethyl)cyclopropyl)piperidin-1-yl)pyrimidine] | 18 nM |
| COCc1cnc(N2CCC([C@H]3C[C@@H]3CCOc3ccc(S(C)(=O)=O)c(F)c3)CC2)nc1 [Example 33, 2-(4-((1R,2R)-2-(2-(3-fluoro-4-(methylsulfonyl)phenoxy)ethyl)cyclopropyl)piperidin-1-yl)-5-(methoxymethyl)pyrimidine] | 15 nM |
| O=C(Cc1ccc(OCC[C@H]2C[C@@H]2C2CCN(c3ncc(Cl)cn3)CC2)cc1F)N1CCC1 [Example 34, 1-(azetidin-1-yl)-2-(4-(2-((1R,2R)-2-(1-(5-chloropyrimidin-2-yl)piperidin-4-yl)cyclopropyl)ethoxy)-2-fluorophenyl)ethanone] | 0.64 nM |
| O=C(Cc1ccc(OCC[C@H]2C[C@@H]2C2CCN(c3ncc(Cl)cn3)CC2)c(F)c1)N1CCC1 [Example 35, 1-(azetidin-1-yl)-2-(4-(2-((1R,2R)-2-(1-(5-chloropyrimidin-2-yl)piperidin-4-yl)cyclopropyl)ethoxy)-3-fluorophenyl)ethanone] | 4.6 nM |
| CCc1cnc(N2CCC([C@@H]3C[C@H]3CCOc3ccc(CC(=O)N4CCC4)c(F)c3)CC2)nc1 [Example 36, 1-(azetidin-1-yl)-2-(4-(2-((1S,2S)-2-(1-(5-ethylpyrimidin-2-yl)piperidin-4-yl)cyclopropyl)ethoxy)-2-fluorophenyl)ethanone] | 5.5 nM |
| Fc1cc(OCC[C@H]2C[C@@H]2C2CCN(c3ncc(Cl)cn3)CC2)ccc1-n1cnnn1 [Example 37, 5-chloro-2-(4-((1R,2R)-2-(2-(3-fluoro-4-(1H-tetrazol-1-yl)phenoxy)ethyl)cyclopropyl)piperidin-1-yl)pyrimidine] | 6.8 nM |
| CCc1cnc(N2CCC([C@H]3C[C@@H]3CCOc3ccc(-n4cnnn4)c(F)c3)CC2)nc1 [Example 38, 5-ethyl-2-(4-((1R,2R)-2-(2-(3-fluoro-4-(1H-tetrazol-1-yl)phenoxy)ethyl)cyclopropyl)piperidin-1-yl)pyrimidine] | 5.3 nM |
| CCc1cnc(N2CCC([C@@H]3C[C@H]3CCOc3ccc(-n4cnnn4)c(F)c3)CC2)nc1 [Example 39, 5-ethyl-2-(4-((1S,2S)-2-(2-(3-fluoro-4-(1H-tetrazol-1-yl)phenoxy)ethyl)cyclopropyl)piperidin-1-yl)pyrimidine] | 8.7 nM |
| CCc1cnc(N2CCC([C@@H]3C[C@H]3CCOc3ccc(-n4cnnn4)cc3F)CC2)nc1 [Example 40, 5-ethyl-2-(4-((1S,2S)-2-(2-(2-fluoro-4-(1H-tetrazol-1-yl)phenoxy)ethyl)cyclopropyl)piperidin-1-yl)pyrimidine] | 5 nM |
| Fc1cc(-n2cnnn2)ccc1OCC[C@@H]1C[C@H]1C1CCN(c2ncc(Cl)cn2)CC1 [Example 41, 5-chloro-2-(4-((1S,2S)-2-(2-(2-fluoro-4-(1H-tetrazol-1-yl)phenoxy)ethyl)cyclopropyl)piperidin-1-yl)pyrimidine] | 5.6 nM |
| O=C(Cc1ccc(OCC[C@@H]2C[C@H]2C2CCN(c3ncc(Cl)cn3)CC2)cc1F)N1CCC1 [Example 42, 1-(azetidin-1-yl)-2-(4-(2-((1S,2S)-2-(1-(5-chloropyrimidin-2-yl)piperidin-4-yl)cyclopropyl)ethoxy)-2-fluorophenyl)ethanone] | 1.8 nM |
| CCc1cnc(N2CCC([C@H]3C[C@@H]3CCOc3ccc(N4CCNC4=O)c(F)c3)CC2)nc1 [Example 43, 1-(4-(2-((1R,2R)-2-(1-(5-ethylpyrimidin-2-yl)piperidin-4-yl)cyclopropyl)ethoxy)-2-fluorophenyl)imidazolidin-2-one] | 9.6 nM |
| CCc1cnc(N2CCC([C@H]3C[C@@H]3CCOc3ccc(CC(=O)N4CCC4)cc3F)CC2)nc1 [Example 44, 1-(azetidin-1-yl)-2-(4-(2-((1R,2R)-2-(1-(5-ethylpyrimidin-2-yl)piperidin-4-yl)cyclopropyl)ethoxy)-3-fluorophenyl)ethanone] | 2.9 nM |
| CCc1cnc(N2CCC([C@H]3C[C@@H]3CCOc3ccc(CC(=O)N4CCC4)c(F)c3)CC2)nc1 [Example 45, 1-(azetidin-1-yl)-2-(4-(2-((1R,2R)-2-(1-(5-ethylpyrimidin-2-yl)piperidin-4-yl)cyclopropyl)ethoxy)-2-fluorophenyl)ethanone] | 0.8 nM |
| CCc1cnc(N2CCC([C@@H]3C[C@H]3CCOc3ccc(CC(=O)N(C)C)c(F)c3)CC2)nc1 [Example 46, 2-(4-(2-((1S,2S)-2-(1-(5-ethylpyrimidin-2-yl)piperidin-4-yl)cyclopropyl)ethoxy)-2-fluorophenyl)-N,N-dimethylacetamide] | 4.4 nM |
| CCc1cnc(N2CCC([C@H]3C[C@@H]3CCOc3ccc(CC(=O)N(C)C)c(F)c3)CC2)nc1 [Example 47, 2-(4-(2-((1R,2R)-2-(1-(5-ethylpyrimidin-2-yl)piperidin-4-yl)cyclopropyl)ethoxy)-2-fluorophenyl)-N,N-dimethylacetamide] | 2.9 nM |
| COCc1cnc(N2CCC([C@@H]3C[C@H]3CCOc3ccc(CC(=O)N4CCC4)c(F)c3)CC2)nc1 [Example 48, 1-(azetidin-1-yl)-2-(2-fluoro-4-(2-((1S,2S)-2-(1-(5-(methoxymethyl)pyrimidin-2-yl)piperidin-4-yl)cyclopropyl)ethoxy)phenyl)ethanone] | 8.5 nM |
| CCc1cnc(N2CCC([C@@H]3C[C@H]3CCOc3cc(F)c(CC(=O)N(C)C)c(F)c3)CC2)nc1 [Example 49, 2-(4-(2-((1S,2S)-2-(1-(5-ethylpyrimidin-2-yl)piperidin-4-yl)cyclopropyl)ethoxy)-2,6-difluorophenyl)-N,N-dimethylacetamide] | 0.7 nM |
| CCc1cnc(N2CCC([C@@H]3C[C@H]3CCOc3cc(F)c(CC(=O)N4CCC4)c(F)c3)CC2)nc1 [Example 50, 1-(azetidin-1-yl)-2-(4-(2-((1S,2S)-2-(1-(5-ethylpyrimidin-2-yl)piperidin-4-yl)cyclopropyl)ethoxy)-2,6-difluorophenyl)ethanone] | 0.35 nM |
| COCc1cnc(N2CCC([C@H]3C[C@@H]3CCOc3ccc(CC(=O)N4CCC4)c(F)c3)CC2)nc1 [Example 51, 1-(azetidin-1-yl)-2-(2-fluoro-4-(2-((1R,2R)-2-(1-(5-(methoxymethyl)pyrimidin-2-yl)piperidin-4-yl)cyclopropyl)ethoxy)phenyl)ethanone] | 3.4 nM |
| COCc1cnc(N2CCC([C@@H]3C[C@H]3CCOc3ccc(CC(=O)N(C)C)c(F)c3)CC2)nc1 [Example 52, 2-(2-fluoro-4-(2-((1S,2S)-2-(1-(5-(methoxymethyl)pyrimidin-2-yl)piperidin-4-yl)cyclopropyl)ethoxy)phenyl)-N,N-dimethylacetamide] | 9.6 nM |
| COCc1cnc(N2CCC([C@H]3C[C@@H]3CCOc3ccc(CC(=O)N(C)C)c(F)c3)CC2)nc1 [Example 53, 2-(2-fluoro-4-(2-((1R,2R)-2-(1-(5-(methoxymethyl)pyrimidin-2-yl)piperidin-4-yl)cyclopropyl)ethoxy)phenyl)-N,N-dimethylacetamide] | 5.9 nM |
| CCc1cnc(N2CCC([C@H]3C[C@@H]3CCOc3cc(F)c(CC(=O)N4CCC4)c(F)c3)CC2)nc1 [Example 54, 1-(azetidin-1-yl)-2-(4-(2-((1R,2R)-2-(1-(5-ethylpyrimidin-2-yl)piperidin-4-yl)cyclopropyl)ethoxy)-2,6-difluorophenyl)ethanone] | 0.25 nM |
| CCc1cnc(N2CCC([C@H]3C[C@@H]3CCOc3cc(F)c(CC(=O)N(C)C)c(F)c3)CC2)nc1 [Example 55, 2-(4-(2-((1R,2R)-2-(1-(5-ethylpyrimidin-2-yl)piperidin-4-yl)cyclopropyl)ethoxy)-2,6-difluorophenyl)-N,N-dimethylacetamide] | 0.34 nM |
| COCc1cnc(N2CCC([C@H]3C[C@@H]3CCOc3cc(F)c(CC(=O)N4CCC4)c(F)c3)CC2)nc1 [Example 56, 1-(azetidin-1-yl)-2-(2,6-difluoro-4-(2-((1R,2R)-2-(1-(5-(methoxymethyl)pyrimidin-2-yl)piperidin-4-yl)cyclopropyl)ethoxy)phenyl)ethanone] | 0.4 nM |

From patent US20150274664A1 (MERCK SHARP & DOHME CORP., priority 2012, published 2015)
